Assay: Radiochemical purity: non-complexed ^68Ga species by ITLC
Type: physicochemical
Protocol: Radiochemical Purity: Non-Complexed ^68Ga Species by ITLC
Radical Scavenger to be used for the improvement of the radiochemical stability of ^68Ga-PSMA-11, tests were performed according to a varied approach in order to consider all the parameters that may affect the radiochemical purity of the product (activity, pH, volume, amount of Gentisic Acid).
Stability tests were performed on the freeze dried product containing the final formulation. […] Kits manufactured with the final formulation, indeed, were stored at different stability conditions (2-8° C.; 25° C. and 40° C.) and were tested at different time points for API-assay, Radiochemical Purity and Radiochemical Stability of the radiolabelled product. […]

For ^68Ga-PSMA-11 [[^68Ga] Gallium PSMA-11], the “[^68Ga] Not Complexed Species, iTLC” value (t0 h, Gentisic Acid 0 μg, IRE 17.19 mCi, 1 mL, pH 5.24) was 0.00%, the “[^68Ga] Not Complexed Species, iTLC” value (t0 h, Gentisic Acid 200 μg, IRE 17.85 mCi, 1 mL, pH 5.22) was 0.23% and the “[^68Ga] Not Complexed Species, iTLC” value (t0 h, Gentisic Acid 200 μg, IRE 18.07 mCi, 1 mL, pH 5.25) was 0.00%. For the same substance, the “[^68Ga] Not Complexed Species, iTLC” value (t0 h, Gentisic Acid 200 μg, ITG 35.92 mCi, 4 mL, pH 4.83) was 0.00%, the “[^68Ga] Not Complexed Species, iTLC” value (t0 h, Gentisic Acid 400 μg, IRE 17.44 mCi, 1 mL, pH 5.13) was 0.00% and the “[^68Ga] Not Complexed Species, iTLC” value (t0 h, Gentisic Acid 400 μg, IRE 17.79 mCi, 1 mL, pH 5.11) was 0.00%. The “[^68Ga] Not Complexed Species, iTLC” value (t0 h, Gentisic Acid 400 μg, ITG 16.9 mCi, 4 mL, pH 4.85) was 0.00%, the “[^68Ga] Not Complexed Species, iTLC” value (t0 h, Gentisic Acid 400 μg, ITG 31.97 mCi, 4 mL, pH 4.81) was 0.00% and the “[^68Ga] Not Complexed Species, iTLC” value (t0 h, Gentisic Acid 1000 μg, E&Z 15.65 mCi, 5 mL, pH 3.75) was 0.00%. The “[^68Ga] Not Complexed Species, iTLC” value (t0 h, Gentisic Acid 1000 μg, IRE 17.1 mCi, 1 mL, pH 5.08) was 0.00%, the “[^68Ga] Not Complexed Species, iTLC” value (t0 h, Gentisic Acid 1000 μg, ITG 30.9 mCi, 4 mL, pH 4.87) was 0.00% and the “[^68Ga] Not Complexed Species, iTLC” value (t0 h, final formulation kit at Release, E&Z 15.65 mCi, 5 mL, pH 3.75) was 0.00%. For the same substance, the “[^68Ga] Not Complexed Species, iTLC” value (t0 h, final formulation kit at Release, E&Z 16.80 mCi, 5 mL, pH 3.75) was 0.51%, the “[^68Ga] Not Complexed Species, iTLC” value (t0 h, final formulation kit at Release, IRE 32.27 mCi, 1 mL, pH 4.95) was 0.00% and the “[^68Ga] Not Complexed Species, iTLC” value (t0 h, final formulation kit at Release, IRE 32.95 mCi, 1 mL, pH 5.07) was 0.00%. For the same substance, the “[^68Ga] Not Complexed Species, iTLC” value (t0 h, final formulation kit at Release, ITG 29.74 mCi, 4 mL, pH 4.67) was 0.00%, the “[^68Ga] Not Complexed Species, iTLC” value (t0 h, final formulation kit at Release, ITG 30.90 mCi, 4 mL, pH 4.67) was 0.00% and the “[^68Ga] Not Complexed Species, iTLC” value (t0 h, kit stored 3 months at 2-8° C., IRE 25.76 mCi, 1 mL, pH 5.29) was 0.00%. For the same substance, the “[^68Ga] Not Complexed Species, iTLC” value (t0 h, kit stored 3 months at 25° C., IRE 24.56 mCi, 1 mL, pH 5.16) was 0.00%, the “[^68Ga] Not Complexed Species, iTLC” value (t0 h, kit stored 3 months at 40° C., IRE 24.86 mCi, 1 mL, pH 5.23) was 0.00% and the “[^68Ga] Not Complexed Species, iTLC” value (t0 h, kit stored 6 months at 2-8° C., IRE 19.90 mCi, 1 mL, pH 5.13) was 0.00%. For the same substance, the “[^68Ga] Not Complexed Species, iTLC” value (t0 h, kit stored 6 months at 25° C., IRE 18.88 mCi, 1 mL, pH 5.09) was 0.00%, the “[^68Ga] Not Complexed Species, iTLC” value (t0 h, kit stored 6 months at 40° C., IRE 19.34 mCi, 1 mL, pH 5.15) was 0.00% and the “[^68Ga] Not Complexed Species, iTLC” value (t4 h, Gentisic Acid 0 μg, IRE 17.19 mCi, 1 mL, pH 5.24) was 0.00%. For the same substance, the “[^68Ga] Not Complexed Species, iTLC” value (t4 h, Gentisic Acid 200 μg, IRE 17.85 mCi, 1 mL, pH 5.22) was 0.00%, the “[^68Ga] Not Complexed Species, iTLC” value (t4 h, Gentisic Acid 200 μg, IRE 18.07 mCi, 1 mL, pH 5.25) was 0.00% and the “[^68Ga] Not Complexed Species, iTLC” value (t4 h, Gentisic Acid 200 μg, ITG 35.92 mCi, 4 mL, pH 4.83) was 0.00%. For the same substance, the “[^68Ga] Not Complexed Species, iTLC” value (t4 h, Gentisic Acid 400 μg, IRE 17.44 mCi, 1 mL, pH 5.13) was 0.00%, the “[^68Ga] Not Complexed Species, iTLC” value (t4 h, Gentisic Acid 400 μg, IRE 17.79 mCi, 1 mL, pH 5.11) was 0.00% and the “[^68Ga] Not Complexed Species, iTLC” value (t4 h, Gentisic Acid 400 μg, ITG 16.9 mCi, 4 mL, pH 4.85) was 0.00%. The “[^68Ga] Not Complexed Species, iTLC” value (t4 h, Gentisic Acid 400 μg, ITG 31.97 mCi, 4 mL, pH 4.81) was 0.00%, the “[^68Ga] Not Complexed Species, iTLC” value (t4 h, Gentisic Acid 1000 μg, E&Z 15.65 mCi, 5 mL, pH 3.75) was 0.00% and the “[^68Ga] Not Complexed Species, iTLC” value (t4 h, Gentisic Acid 1000 μg, IRE 17.1 mCi, 1 mL, pH 5.08) was 0.00%. For the same substance, the “[^68Ga] Not Complexed Species, iTLC” value (t4 h, Gentisic Acid 1000 μg, ITG 30.9 mCi, 4 mL, pH 4.87) was 0.00%, the “[^68Ga] Not Complexed Species, iTLC” value (t4 h, final formulation kit at Release, E&Z 15.65 mCi, 5 mL, pH 3.75) was 0.00% and the “[^68Ga] Not Complexed Species, iTLC” value (t4 h, final formulation kit at Release, E&Z 16.80 mCi, 5 mL, pH 3.75) was 0.00%. For the same substance, the “[^68Ga] Not Complexed Species, iTLC” value (t4 h, final formulation kit at Release, IRE 32.27 mCi, 1 mL, pH 4.95) was 0.00%, the “[^68Ga] Not Complexed Species, iTLC” value (t4 h, final formulation kit at Release, IRE 32.95 mCi, 1 mL, pH 5.07) was 0.00% and the “[^68Ga] Not Complexed Species, iTLC” value (t4 h, final formulation kit at Release, ITG 29.74 mCi, 4 mL, pH 4.67) was 0.00%. The “[^68Ga] Not Complexed Species, iTLC” value (t4 h, final formulation kit at Release, ITG 30.90 mCi, 4 mL, pH 4.67) was 0.00%, the “[^68Ga] Not Complexed Species, iTLC” value (t4 h, kit stored 3 months at 2-8° C., IRE 25.76 mCi, 1 mL, pH 5.29) was 0.00% and the “[^68Ga] Not Complexed Species, iTLC” value (t4 h, kit stored 3 months at 25° C., IRE 24.56 mCi, 1 mL, pH 5.16) was 0.00%. The “[^68Ga] Not Complexed Species, iTLC” value (t4 h, kit stored 3 months at 40° C., IRE 24.86 mCi, 1 mL, pH 5.23) was 0.00%, the “[^68Ga] Not Complexed Species, iTLC” value (t4 h, kit stored 6 months at 2-8° C., IRE 19.90 mCi, 1 mL, pH 5.13) was 0.00% and the “[^68Ga] Not Complexed Species, iTLC” value (t4 h, kit stored 6 months at 25° C., IRE 18.88 mCi, 1 mL, pH 5.09) was 0.00%. For the same substance, the “[^68Ga] Not Complexed Species, iTLC” value (t4 h, kit stored 6 months at 40° C., IRE 19.34 mCi, 1 mL, pH 5.15) was 0.00%.
